Conditions: rat; liver microsomes; pH 7.4; 15.0 min; 1.0 µM

Row | SMILES | half-life [min]
1 | CCN(CC)CCOc1ccc(Cc2ccccc2)cc1 | 1.73
2 | Cc1ccc(C(=O)Nc2nc3nc(C)cc(=O)n3[nH]2)cc1 | > 30
3 | COc1cccc(CNC(=O)c2c(OC)cc(=O)n3c2CCN(C(=O)c2ccc(C)cc2C)CC3)c1 | 5.9
4 | COc1ccc2c(c1)CN(C(=O)CCN1CCC(Cc3ccccc3)CC1)CCS2 | 2.27
5 | CN1CC=C(c2nc(Nc3ccc(F)c(F)c3)c3ccccc3n2)CC1 | 3.6
6 | Cc1noc(C)c1-c1ccc2ncnc(NCc3cccc(Cl)c3)c2c1 | 5.19
7 | COc1ccc(CNc2ccc(S(=O)(=O)Nc3nccs3)cc2)cc1O | > 30
8 | Nc1ncc(S(=O)(=O)N2CCOCC2)s1 | > 30
9 | CC(C)COc1ccc(-c2csc(N3CCC(C(N)=O)CC3)n2)cc1 | 7.23
10 | COc1ccc(NC(=O)c2[nH]c(C)c(C(C)=O)c2C)cc1S(=O)(=O)N(C)C | > 30
11 | OC1(c2ccc(Cl)cc2)CCN(Cc2c[nH]c3ccccc23)CC1 | 3.89
12 | CCC[C@H](NC(=O)/C(C#N)=C/c1cccc(Br)n1)c1ccccc1 | > 30
13 | Clc1ccc(-c2nnc(C3CCCCC3)o2)cc1 | 2.9
14 | COc1cc2cc(CN3CCC(N(C)C)C3)c(-c3cccc(Cl)c3)nc2cc1OC (stereo not drawn) | 23.1
15 | CCCSc1nc(N[C@@H]2C[C@H]2c2ccc(F)c(F)c2)c2nnn([C@@H]3C[C@H](OCCO)[C@@H](O)[C@H]3O)c2n1 | > 30
16 | CCOc1ccc(CCNC(=O)c2cc3ccccc3n2CCN2CCOCC2)cc1OCC | 1.6
17 | O=C1CCc2cc(S(=O)(=O)Nc3ccc(F)c(Cl)c3)ccc2N1 | 20.5
18 | Cc1cc(C)nc(NC(=S)N2CCN(c3ccc(Cl)cc3F)CC2)c1 | > 30
19 | O=C(Nc1ccc(C(=O)N2CCCC2)cc1)c1ccccc1F | > 30
20 | CCOc1cc2c(cc1OCC)CN(C(=O)c1cc3sccc3n1Cc1ccccc1)CC2 | 2.8
21 | CCOC(=O)c1[nH]c(C)c(CCC(=O)N2CCN(c3cc(C)ccc3C)CC2)c1C | 2.27
22 | CCOc1ccc(CCNC(=O)c2cc3ccccc3n2Cc2ccc(Cl)c(F)c2)cc1OCC | 1.7
23 | C[C@@H]1CN(CC(=O)N2CC(C)(C)c3ncc(Cc4ccc(F)cc4)cc32)[C@@H](CN2CCOC[C@H]2C)CN1 | 7.57

Row | SMILES | half-life [min]
24 | Nc1c(C(=O)Nc2ccc(Cl)cc2)sc2nc3c(cc12)N1CCC3CC1 | 24
25 | N=c1c2c(n(Cc3ccccc3)c3c1CCC3)CCC2 | 4.04
26 | Cc1cccc(S(=O)(=O)c2cn(Cc3ccccc3)c3cc(N4CCCCC4C)c(F)cc3c2=O)c1 (stereo not drawn) | 2
27 | CCn1c(-c2nonc2N)nc2cnc(Oc3cccc(NC(=O)c4ccc(OCCN5CCOCC5)cc4)c3)cc21 | 6.56
28 | CC(=O)N1CCc2c(sc3c2c(=O)n(-c2ccccc2)c(=O)n3Cc2cccc(C(F)(F)F)c2)C1 | 25
29 | COc1ccccc1C(=O)N1CCc2cc(-c3nc(NC(=O)Cc4ccc5c(c4)OCO5)sc3C)ccc21 | 9.6
30 | CCCc1oc2ccc(NS(=O)(=O)c3ccc(OC)cc3)cc2c1C(=O)OCC | 1.37
31 | CCOC(=O)c1nn(-c2ccccc2)c(=O)c2c(N)scc12 | 2.12
32 | CS(=O)(=O)c1ccccc1-c1csc(N2CCC(C(N)=O)CC2)n1 | > 30
33 | NC(=O)N1CCCC(C(=O)N2CCCN(c3ccc(F)cc3)CC2)C1 (stereo not drawn) | > 30
34 | Cc1ccc(NC(=O)CSc2ncc(S(=O)(=O)c3ccc(C(C)C)cc3)c(=O)[nH]2)cc1C | 4.98
35 | Cc1c(C(=O)OCCOc2ccccc2)[nH]c2c1C(=O)CC(c1ccccc1)C2 (stereo not drawn) | 5.25
36 | O=c1cc(-c2ccc(O)c(O)c2)oc2cc(O)cc(O)c12 | > 30
37 | C[C@@H](NC(=O)c1ncnc(N)c1Cl)c1ncc(C(=O)Nc2cc(C(F)(F)F)c(Cl)cn2)s1 | > 30
38 | Cc1ccc(NS(=O)(=O)c2cccc(C(=O)O)c2)cc1S(=O)(=O)N1CCOCC1 | > 30
39 | CN(C)c1ccc(-c2csc(N3CCC(C(N)=O)CC3)n2)cc1 | 4.12
40 | CCN1CCC(N(Cc2ccc3c(c2)OCO3)C(=O)Nc2cc(Cl)ccc2C(=O)OC)CC1 | 6.72
41 | NC(=O)C1CCN(c2nc(-c3ccc4c(c3)OCCCO4)cs2)CC1 | 6.7
42 | Cn1cc2c3c(cccc31)CN(C(=O)c1ccc(F)c(Cl)c1)CC2 | 1.88
43 | CCC(=O)NC(c1ccco1)c1cc(Cl)c2cccnc2c1O (stereo not drawn) | 3.3
44 | CCOC(=O)N1CCN(Cc2nc3c(c(=O)n(C)c(=O)n3C)n2Cc2cccc(C)c2)CC1 | 4.9
45 | Cc1sc(NC(=O)Cc2ccc3c(c2)OCO3)nc1-c1ccc2c(c1)CCN2C(=O)c1ccccc1C(F)(F)F | > 30
46 | COc1ccc(Cn2c(=O)[nH]c3cc(C(=O)NCCCN4CCCCC4)ccc3c2=O)cc1 | > 30

Row | SMILES | half-life [min]
47 | CC1=Nc2cc(C(=O)NC3CCCC3)ccc2Sc2ccc(C)cc21 | 3.31
48 | O=C(O)c1ccccc1-c1ccc(/C=c2\sc3nc4cc(Br)cnc4n3c2=O)o1 | 22
49 | CCS(=O)(=O)c1ncc(N(Cc2ccc(F)cc2)Cc2ccco2)c(C(=O)Nc2cc(C)ccc2C)n1 | 3.51
50 | COc1ncccc1-c1cc2c(ccn2CC2CCN([S+](C)(=O)[O-])CC2)c(N2CCOCC2)n1 | 13.9
51 | O=[N+]([O-])c1cccc(CSc2nc3ncc(Br)cc3[nH]2)c1 | 6.6
52 | NC(=O)C1CCN(c2nc(-c3ccc4c(c3)CCO4)cs2)CC1 | 5.55
53 | C[C@@H]1CC(=O)Nc2cccc(-c3cnn(C(C)(C)C)c3)c2N1 | > 30
54 | Cc1ccc(NS(=O)(=O)c2c(C)[nH]c(C)c2C(=O)N2CCCC2)cc1Cl | 1.03
55 | O=C(Cc1ccc(Cl)c(Cl)c1)Nc1ccc(S(=O)(=O)Nc2cncnc2)cc1 | > 30
56 | CC1(C)CC2CC(C)(CN2S(=O)(=O)c2ccc(C(=O)Nc3cccc(S(=O)(=O)N4CCOCC4)c3)cc2)C1 (stereo not drawn) | 2.8
57 | O=C1Nc2ccccc2/C1=C/c1ccc[nH]1 | 5.1
58 | COc1ccc(CCn2c(N)cc(=O)[nH]c2=S)cc1OC | > 30
59 | O=C(Cn1ccn2nc3c(c2c1=O)CCCCC3)Nc1ccc2c(c1)OCO2 | 6.81
60 | COc1ccc(-n2nc(C3CCCN(CC4CCCCC4)C3)[nH]c2=O)cc1 (stereo not drawn) | > 30
61 | Cc1ccc(OCCn2c(CCNC(=O)N3CCCCC3)nc3ccccc32)cc1 | 1.7
62 | CCCOc1ccc2nc(NC(=O)OC)[nH]c2c1 | > 30
63 | CCCNC(=O)Nc1ccc(Oc2ncnc3cc(OC)c(OC)cc23)cc1Cl | > 30
64 | C[S+](=O)([O-])N1CCC(Cn2ccc3c(N4CCOCC4)nc(-c4cccc5[nH]ccc45)cc32)CC1 | 15.9
65 | N=c1c2c(ccn1CCc1ccccc1)Oc1ccc3ccccc3c1C2c1ccccc1 (stereo not drawn) | > 30
66 | Cc1ccc(S(=O)(=O)Nc2cnccc2C(=O)Nc2nc(C3CCC3)cs2)cc1 | 5
67 | Cc1cc(NS(=O)(=O)c2ccc3c(c2)CCC(=O)N3)ccc1F | 11.6
68 | CCOC(=O)N1CCN(C(=O)Cn2sc3nc(C)cc(C)c3c2=O)CC1 | > 30

Further lines, results first:

Row | half-life [min] | SMILES
69 | 2.1 | CC(C)c1ccc(Nc2c(-c3ccccn3)nc3ccccn23)cc1
70 | > 30 | O=C(O)c1cccc(-c2cnc3ccccc3c2)c1
71 | 8.9 | CC(C)c1ccccc1-c1ncc(F)c(NC2(c3ccc(-c4cccnc4)cc3)CC2)n1
72 | > 30 | Fc1cc(Nc2nc(-c3ccncc3)nc3ccccc23)ccc1-c1ccc2[nH]ncc2c1
73 | 9.4 | FC1(F)CCN(c2nc(-c3ccncc3)nc3ccccc23)CC1
74 | 2.32 | CCCCCCOc1ccc(OC(=O)c2ccncc2)cc1
75 | 2.6 | Cc1ccc(-c2csc(NC(=O)c3ccccc3NS(=O)(=O)c3ccc(C)cc3)n2)cc1
76 | 23 | Cc1ccc(-c2cc(C(=O)Nc3ccc(-n4cncn4)cc3)c3ccccc3n2)cc1C
77 | > 30 | COc1ccc(-c2ccc(C(=O)NC3CC(c4cc(=O)[nH]c(N)n4)C3)o2)cc1 (stereo not drawn)
78 | 12.3 | Cn1nnnc1Sc1ncnc2sc(-c3ccccc3)cc12
79 | 22.4 | Cc1ccc(-c2cc(C(=O)O)c3ccccc3n2)cc1
80 | 17 | Fc1cc(Nc2nc(-c3ccncc3)nc3ccccc23)ccc1C(F)(F)F
81 | 20.3 | COc1ccc(Nc2nc(-c3cccc(OC)c3)no2)cc1
82 | > 30 | Cc1nc2c(-c3ccccc3)cnn2c(N)c1-c1ccccc1
83 | > 30 | O=C(Nc1ccc(S(=O)(=O)Nc2nccs2)cc1)c1ccc(-c2ccccc2)cc1
84 | 3.7 | COc1cccc(NS(=O)(=O)c2ccc(C)cc2)c1C(=O)Nc1nc(-c2ccccc2)cs1
85 | 1.88 | O=S(=O)(c1ccccc1)c1nnn2c1nc(NCc1cccs1)c1sccc12
86 | > 30 | O=C(Nc1ncc(-c2ccccc2)s1)c1ccc(-c2cccc([N+](=O)[O-])c2)o1

Row | half-life [min] | SMILES
87 | 5.9 | Cc1ccc(S(=O)(=O)Nc2cnccc2C(=O)NCc2ccccc2)cc1
88 | 1.85 | COc1cccc(-c2csc(NC(=O)c3ccncc3NS(=O)(=O)c3ccc(C)cc3)n2)c1
89 | 10 | COc1cccc(CNc2ccc(S(=O)(=O)Nc3cccc4ccncc34)cc2)c1O
90 | 3.3 | CCCc1ccc(-c2csc(NC(=O)c3ccncc3NS(=O)(=O)c3ccc(C)cc3)n2)cc1
91 | 11 | COc1ccc(-c2ccc(Nc3nc(-c4ccncc4)nc4ccccc34)cc2F)cc1F
92 | 7.4 | O=S(=O)(Nc1cccc2ccccc12)c1ccc(NCc2ccc(Br)cc2O)cc1
93 | > 30 | COc1ccc(-c2nc3c(c(SCC(=O)Nc4ccc(C(=O)O)cc4)n2)Cc2ccccc2O3)cc1
94 | 15 | Cc1ccc(S(=O)(=O)Nc2cc(C(=O)Nc3nc(-c4ccccc4)cs3)ccc2Cl)cc1
95 | > 30 | O=C(NC1CCN(c2cc(-c3ccc(Cl)cc3)[nH]n2)C1)c1ccccc1 (stereo not drawn)
96 | 8.96 | Cc1ccc(NC2=C(c3ccc(C(F)(F)F)cc3)C(=O)c3ccccc32)cc1F
97 | > 30 | COc1cccc(C(=O)Nc2nc(-c3nnn(-c4ccccc4C(F)(F)F)c3C)ns2)c1
98 | 23 | CC(Nc1ncnc2c1cnn2-c1cccc(Cl)c1)c1ccccc1 (stereo not drawn)
99 | 1.18 | CC(C)CS(=O)(=O)c1oc(-c2ccc(F)cc2)nc1S(=O)(=O)c1ccccc1
100 | 1.26 | COc1cccc(C(=O)NCCSc2c(-c3ccc(F)cc3)[nH]c3ccccc23)c1OC
101 | 4.3 | COc1cccc(Nc2nc(-c3ccncc3)nc3ccccc23)c1
102 | > 30 | Cc1cc(-c2cc3c(nc2-c2ccccc2)nc(C(=O)NCCN(C)C)n3C)ccn1
103 | 13 | Cc1ccc(S(=O)(=O)Nc2cnccc2C(=O)Nc2nc(-c3ccccc3Cl)cs2)cc1
